The Emax is the size of the effect at its maximum, as opposed to the concentration needed. The IC50 is the concentration that gives 50% inhibition. As a reminder, the solubility is the dissolved amount per volume that the medium holds. High values mean a readily soluble substance, low ones a poorly soluble substance. For orientation: microsomal CLint means the capacity of the preparation to metabolise the compound, expressed as a volume cleared per time. A high value points to faster metabolism. Usually fraction unbound stands for free concentration divided by total concentration. A low value points to little free substance. The Papp is the rate of passage across a membrane or cell layer, normalised by area and donor concentration. High values mean fast passage, low ones slow passage. As usually defined, the mortality is the percentage killed. A low value points to a weak lethal effect.

Data set [1] has as its system primary aortic vascular smooth muscle cells (VSMCs). Put plainly: Ca2+-mobilization assay, concentration-response. It counts as cell-based, human.
The next data set has as its system mouse myometrial tissue. Put plainly: Ex vivo isometric myometrial contractility organ bath assay. The settings on record: for Emax: read-out: Emax, inhibition of myometrial contractions; for IC50: read-out: IC50, inhibition of myometrial contractions.
A short description of another data set: Solubility. The class given is physicochemical.
A short description of data set [2]: Intrinsic clearance in liver microsomes. It counts as in vitro ADME. The settings on record: human. (In general: Liver microsomes are a subcellular fraction often used to study metabolism.)
A short description of data set [3]: In vitro therapeutic index. The settings on record: smallest cell viability IC50 among the three cell types / Ca2+ assay IC50.
For another data set, the system named is myometrial cells. Kind of data set: Combination high-throughput Ca2+-mobilization assay. The settings on record: for synergy in combination Ca2+-mobilization assay: 8 x 8 dose matrices, Combenefit.
Data set [4] in a line: Intrinsic clearance in liver microsomes. The class given is in vitro ADME. The settings on record: mouse.
Data set [5] is described as follows: Human plasma protein binding. It counts as in vitro ADME.
The nature of data set [6]: Intrinsic clearance in liver microsomes. The class given is in vitro ADME. The settings on record: rat.
Another data set in a line: MDCK permeability. It counts as in vitro ADME. The settings on record: dog.
Another data set deals with primary myometrial cells. Kind of data set: Ca2+-mobilization assay, concentration-response. The class given is cell-based. The settings on record: Homo sapiens, read-out: Emax, Myometrial, inhibition of Ca2+-mobilization.
Data set [7] has as its system mifepristone-induced mouse model of PTB. Put plainly: In vivo therapeutic efficacy in mifepristone-induced mouse model of PTB.
The test system of a further data set is human myometrial tissue. Kind of data set: Ex vivo isometric myometrial contractility organ bath assay. The settings on record: read-out: Emax, inhibition of myometrial contractions.
For another data set, the system named is CD-1 pregnant mice. Put plainly: Minimal effective dose of mifepristone to induce PTB. It counts as in vivo, mouse. The settings on record: s.c. on day 15 of pregnancy.
The subject of data set [8] is mifepristone-induced mouse model of PTB. The settings on record: mifepristone 150 μg; prior study; cited from earlier work.

Converted amounts (≈) assume the structure as drawn. Some results are limits rather than exact numbers.

For the compound `COc1c(-c2coc3cc4c(cc3c2=O)CC(OC(C)=O)C(C)(C)O4)ccc2c1C=CC(C)(C)O2` (stereo not drawn) [MA, mundulone acetate], the “Emax, % difference” value in data set [1] (myometrial cells vs aorta VSMCs) was found to be 70%. Further, the Emax is 27% in the data set with mouse myometrial tissue and 44.5% in the data set on primary myometrial cells. For the same compound, the IC50 in the data set with mouse myometrial tissue is greater than 100 µM. This compound returned a solubility in the data set “Solubility” of 11 to 20 µM. Further, the values for the microsomal CLint in [2], in [4] and in data set [6] were 27.2 µL/min/mg, 886 µL/min/mg and 586 µL/min/mg, respectively. Also, in [3], the “TI (therapeutic index)” value is 8.8. In the data set on myometrial cells, the “synergy in combination Ca2+-mobilization assay” value is on record as “exhibited synergistic efficacy with only nifedipine”. Also, the “fold enhancement in potency in combination” value in the data set on myometrial cells (in combination with nifedipine) is 2–3 fold. Further, the “fold improvement of efficacy in combination vs single-agent” value with myometrial cells (in combination with nifedipine) is listed as 6 fold. In data set [5], this compound returned an unbound share (fraction unbound) of 0.001. For the same compound, in the data set “MDCK permeability”, the Papp was determined as 22.1 ×10⁻⁶ cm/s.
As for `COc1c(-c2coc3cc4c(cc3c2=O)CC(O)C(C)(C)O4)ccc2c1C=CC(C)(C)O2` (stereo not drawn) [Mundulone, mundulone], the “IC50, Fold difference” value in data set [1] (aorta VSMCs vs myometrial cells) worked out at 2. Also, the timing of delivery entry in [7] (30 μg mifepristone, 6.5, 13, or 26 mg/kg twice daily s.c., dose-dependently, p = 0.0457) is recorded as “delayed the timing of delivery”. The same compound returned a mortality in data set [7] (26 mg/kg twice daily until the evening of day 17, 30 μg mifepristone) of 100%. In addition, in [7] (single-agent, twice daily), the “signs of impaired health or mortality in treated mice” value is “did not show signs of impaired health or mortality until treated with 26 mg/kg twice daily for two days”. Further, the maximum response (Emax) in the data set on mouse myometrial tissue turned out to be 70%; in the data set on primary myometrial cells, 80.5%; with human myometrial tissue, 57%. Further, the IC50 with mouse myometrial tissue is 10 µM. Also, the solubility in the data set “Solubility” lay within 21 to 40 µM (≈ 9.12 to 17.4 µg/mL). Also, the intrinsic metabolic clearance (microsomal CLint) in data set [2] is less than 20 µL/min/mg; in data set [4], 47.1 µL/min/mg; in [6], 30.7 µL/min/mg. Further, the “TI (therapeutic index)” value in [3] is 0.8. Further, in the data set on myometrial cells, the “synergy in combination Ca2+-mobilization assay” value was “displayed synergism with atosiban and nifedipine”. For the same compound, the “fold improvement of efficacy in combination vs single-agent” value with myometrial cells (in combination with atosiban) came to 2 fold; with myometrial cells (in combination with nifedipine), 6 fold. In the data set on myometrial cells (in combination with nifedipine), the “fold enhancement in potency in combination” value was 2–3 fold. In the data set on myometrial cells (with either atosiban (FR 3.7:1) or nifedipine (FR 1:4.4)), the “fold improvement of potency in combination vs single-agent” value is given as 2–3 fold. Further, the fraction unbound in data set [5] was 0.007. The apparent permeability (Papp) in “MDCK permeability” came to 49.4 ×10⁻⁶ cm/s.
In the case of `CC#C[C@]1(O)CC[C@H]2[C@@H]3CCC4=CC(=O)CCC4=C3[C@@H](c3ccc(N(C)C)cc3)C[C@@]21C` [mifepristone], the “lowest dose required for 100% PTB rates” value with CD-1 pregnant mice was found to be 30 µg.
Regarding `COC(=O)C1=C(C)NC(C)=C(C(=O)OC)C1c1ccccc1[N+](=O)[O-]` [nifedipine], in data set [8], the “delivery occurring post-mifepristone administration” value is no more than 25 h.

Source of the values: PMC10712649 (Pharmacological research, 2023).
